The target in one data set is PI4Ka (Homo sapiens, UniProt P42356). Description: HotSpot lipid kinase inhibition assay.
Data set [1] has as its system cell culture-derived HCV (HCVcc).

pIC50: −log10 of the molar value. Bounds are passed on as bounds.

This note sets out measurements from US20190358196A1, “PI 4-KINASE INHIBITOR AS A THERAPEUTIC FOR VIRAL HEPATITIS, CANCER, MALARIA. AUTOIMMUNE DISORDERS AND INFLAMMATION, AND A RADIOSENSITIZER AND IMMUNOSUPPRESSANT” (priority 2016, published 2019).

Sequence of PI4Ka (P42356 whole entry): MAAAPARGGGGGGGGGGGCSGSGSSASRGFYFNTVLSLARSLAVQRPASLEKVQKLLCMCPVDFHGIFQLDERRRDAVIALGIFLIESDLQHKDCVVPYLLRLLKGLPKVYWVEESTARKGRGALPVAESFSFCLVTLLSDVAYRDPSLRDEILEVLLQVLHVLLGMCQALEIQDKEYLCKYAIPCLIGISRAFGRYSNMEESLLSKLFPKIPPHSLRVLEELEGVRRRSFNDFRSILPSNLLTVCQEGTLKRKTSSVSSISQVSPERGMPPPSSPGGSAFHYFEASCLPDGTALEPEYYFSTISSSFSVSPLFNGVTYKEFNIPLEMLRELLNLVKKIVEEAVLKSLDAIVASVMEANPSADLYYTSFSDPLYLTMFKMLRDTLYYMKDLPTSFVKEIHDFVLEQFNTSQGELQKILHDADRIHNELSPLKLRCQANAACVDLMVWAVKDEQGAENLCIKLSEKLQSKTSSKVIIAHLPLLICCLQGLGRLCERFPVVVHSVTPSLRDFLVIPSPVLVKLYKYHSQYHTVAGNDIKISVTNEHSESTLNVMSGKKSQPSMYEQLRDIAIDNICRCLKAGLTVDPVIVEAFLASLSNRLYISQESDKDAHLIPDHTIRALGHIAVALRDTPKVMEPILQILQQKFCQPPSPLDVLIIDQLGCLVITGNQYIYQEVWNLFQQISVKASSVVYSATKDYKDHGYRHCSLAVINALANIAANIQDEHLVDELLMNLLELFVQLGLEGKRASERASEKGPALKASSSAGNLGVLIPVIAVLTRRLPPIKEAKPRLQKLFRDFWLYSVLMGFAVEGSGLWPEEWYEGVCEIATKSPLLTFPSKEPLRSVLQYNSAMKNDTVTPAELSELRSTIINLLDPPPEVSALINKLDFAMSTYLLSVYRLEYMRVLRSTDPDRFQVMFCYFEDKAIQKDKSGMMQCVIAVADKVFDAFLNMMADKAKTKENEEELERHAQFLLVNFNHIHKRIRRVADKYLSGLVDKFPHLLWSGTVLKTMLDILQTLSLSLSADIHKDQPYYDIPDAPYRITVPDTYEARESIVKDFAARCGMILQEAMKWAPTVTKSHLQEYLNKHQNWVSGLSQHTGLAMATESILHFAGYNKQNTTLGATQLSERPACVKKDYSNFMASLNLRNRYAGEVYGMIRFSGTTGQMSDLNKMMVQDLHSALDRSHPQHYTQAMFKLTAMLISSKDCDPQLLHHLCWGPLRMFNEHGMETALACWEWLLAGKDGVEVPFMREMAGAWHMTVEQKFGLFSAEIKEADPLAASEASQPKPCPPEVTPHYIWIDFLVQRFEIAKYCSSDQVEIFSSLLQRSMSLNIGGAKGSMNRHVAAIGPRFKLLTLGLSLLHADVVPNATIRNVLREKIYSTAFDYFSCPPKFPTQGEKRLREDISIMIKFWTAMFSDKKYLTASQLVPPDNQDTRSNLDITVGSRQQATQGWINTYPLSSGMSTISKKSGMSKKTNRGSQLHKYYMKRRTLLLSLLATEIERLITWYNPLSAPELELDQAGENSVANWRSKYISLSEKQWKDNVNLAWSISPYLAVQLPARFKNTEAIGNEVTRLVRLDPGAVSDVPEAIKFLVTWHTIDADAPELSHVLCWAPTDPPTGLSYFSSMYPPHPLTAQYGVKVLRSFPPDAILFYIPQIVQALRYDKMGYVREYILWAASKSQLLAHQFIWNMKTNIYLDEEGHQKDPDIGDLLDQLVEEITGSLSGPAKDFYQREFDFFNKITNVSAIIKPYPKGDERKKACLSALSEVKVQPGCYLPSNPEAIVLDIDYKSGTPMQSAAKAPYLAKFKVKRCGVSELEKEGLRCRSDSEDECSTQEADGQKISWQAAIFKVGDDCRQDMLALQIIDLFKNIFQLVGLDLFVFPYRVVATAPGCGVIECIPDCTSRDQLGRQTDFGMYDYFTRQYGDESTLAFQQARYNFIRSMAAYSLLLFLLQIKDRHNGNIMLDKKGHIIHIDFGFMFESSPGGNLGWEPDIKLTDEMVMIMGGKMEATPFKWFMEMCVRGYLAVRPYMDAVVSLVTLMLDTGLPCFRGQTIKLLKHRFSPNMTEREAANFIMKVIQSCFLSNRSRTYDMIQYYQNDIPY

For `Oc1cccc(-c2nc(N3CCOCC3)c3oc4ncccc4c3n2)c1` [PI-103], the pIC50 (commonly −log10 of the IC50, conventionally taken in molar units) at PI4Ka is 6.49.
Regarding Human interferon alpha-2b [rIFNa-2b], in data set [1], the “SI (CC50/EC50)” value is more than 15.9.
